Where two headings read alike, the source gives them in different places.
How the values were obtained:
[1] = Drug retention in liposomes; type: physicochemical; conditions: incubated in medium at 37° C. for 24 h
Procedure: Liposomes were composed of 1,2-distearoyl-sn-glycero-3-phosphatidyl-choline (DSPC), cholesterol, 1,2-distearoyl-sn-glycero-3-phosphatidyl-ethanolamine-N-[methoxy (poly-ethyleneglycol)-2000 (DSPE-PEG2000) at a molar ratio of 57:40:3. Liposomes were prepared by the lipid film hydration method. Briefly, cholesterol and lipids were dissolved in chloroform. The solvent was evaporated under a gentle stream of nitrogen gas and the lipid film was dried under vacuum overnight. The lipid film was hydrated with 300 mM citrate buffer (pH 4) for 1 h with intermediate vortex mixing at a lipid concentration of 20 mM at a temperature of 60° C. Liposomes were repetitively frozen in liquid nitrogen and thawed at a temperature of 60° C. five times before extrusion. Liposomes were extruded ten times through two stacked polycarbonate membranes filters (Whatman Inc. Nucleopore, Newton, Mass.) with a pore size of 100 nm at a room temperature using an Avanti Mini-extruder (Avanti Polar Lipids Inc., Alabaster, Ala.). […]
Liposomes were incubated at temperatures of 37° C. or 60° C. […] The fluorescence intensity of samples was determined at an excitation wavelength of 468 nm and an emission wavelength of 589 nm. The percentage of encapsulated drug after incubation was determined relative to the amount of encapsulated drug before incubation.

[2] = test system: human tumour A431 cells (squamous carcinoma); test: Binding of 125I-Compound 1 to permealised A431 cells (gamma counter, fluorescence microscopy); type: cell-based
Procedure: Human cultured tumour cells […] were grown as monolayer cultures using Ham's F-10 medium (Biochrom AG, Berlin, Germany) containing 10% fetal calf serum, glutamine (2 mM), streptomycin (100 μg/ml), and penicillin (100 IU/ml) at a temperature of 37° C. in a humidified 5% CO2 incubator.
Cultured human tumour A431 cells (squamous carcinoma) were grown on glass slides, cooled to a temperature of 4° C., and washed with phosphate buffer. Cells were inactivated in methanol for 15 minutes at a temperature of −20° C. and then quickly washed at a temperature of 4° C. with phosphate buffer. Cells were thereafter permealised by acetone treatment for 10 seconds at a temperature of 4° C. After drying cells were incubated with ^125I-Compound 1 at room temperature for one hour, washed, and analyzed for radioactivity using a gamma counter (1480 Wallac Wizard, Perkin Elmer, Wellesley, Mass., USA). In addition, cells were inspected by fluorescence microscopy.

[3] = test system: calf thymus DNA (CT DNA); test: Fluorescence titration, binding to calf thymus DNA; conditions: room temperature, BPES buffer pH 7, n=3
Procedure: Type 1 calf thymus DNA sodium salt (Sigma-Aldrich Co., St Louis, M.O., USA) was hydrated in BPES buffer (6 mM Na2HPO4, 2 mM NaH2PO4, 1 mM EDTA, 185 mM NaCl, pH 7) at a concentration of approximately 2 mg/ml and sonicated at approximately 8 μA in a MSE Soniprep 150 ultrasonic disintegrator (Integrated Services TCP Inc., Palisades Park, N.J., USA) for 30 min in a water bath on ice. The sample was then dialyzed for 48 h against BPES using Slide-A-Lyzer® dialysis cassettes (10,000 MWCO) (Pierce, Rockford, Ill., USA). The final DNA concentration was determined spectrophotometrically on a HP8453 spectrophotometer (Hewlett-Packard Company Houston Tex., USA) at a wavelength of 260 nm using an extinction coefficient of 12,824 M (bp)^−1 cm^−1.
Fluorescence titration experiments were performed on a SPEX 1680 Fluorolog spectrofluorometer (SPEX Industries Inc., Edison, N.J., USA) at room temperature with λex=480 nm (slid width 2.5 mm) and λem=592 nm (slid width 2.5 mm). The initial free drug concentration was 1 μM. […] The concentration of bound drug was calculated by the difference between CT and Cf. Binding constants (Ki) and exclusion parameters (n) were calculated by plotting r/Cf versus r (Scatchard plot), where r is the number of moles of bound drug per mol DNA base pairs. Theoretical curves for the neighbor exclusion model were calculated by using the algorithm: r/Cf=Ki(1−nr)[(1−nr)/[1−(n−1)r]]^n−1 (J. Mol. Biol. 86, 469-489, 1974)
where Ki (M^−1) is the intrinsic binding constant and n (base pairs) is the exclusion parameter. The parameters Ki and n were varied to generate theoretical curves that closest fitted the experimental data.

[4] = test system: SKBR-3 cells; test: Growth curves of SKBR-3 cells (toxicity); type: cell-based, human; conditions: SKBR-3 cell monolayers, 0.5 ng/ml, 2.5 h incubation
Procedure: Growth curves^125I-Compound 1, Compound 1, doxorubicin, or daunorubicin were dissolved in culture media to a concentration of 0.5 ng/ml. The specific activity of ^125I-Compound 1 was 100 kBq/ng. SKBR-3 cells were incubated with drug in 60 mm plastic Petri dishes as triplicates, for 2.5 h. Control-cells were incubated with ordinary culture medium. After incubation, the medium was removed from all dishes and cells were washed six times with serum-free medium. Cells were detached from dishes by adding 0.5 ml of trypsin/EDTA for 10 min at a temperature of 37° C. After re-suspension in 1 ml of culture media cells were counted using a coulter counter (Z2 Coulter Counter, Beckman Coulter) and sub-cultivated to 10^5 cells to generate growth curves. Growth curves were corrected for loss of cells at each sub-cultivation.

[5] = Dissolution of drug in 10% (wt/vol) sucrose solution; type: physicochemical; conditions: 0.5 mM in 10% (wt/vol) sucrose solution
Procedure: Compound 1 (3′-N-(4-hydroxy-3-iodobenzyl)-13-(R/S)-dihydrodaunorubicin, stereoisomeric mixture) and Compound 2 (3′-N-(4-Hydroxy-3-iodobenzyl)daunorubicin), structures are shown below, or doxorubicin (Sigma Aldrich, St. Louis, Mo., USA) were encapsulated into liposomes using the pH-gradient driven loading protocol by Mayer et al. The pH gradient across the liposome membrane was generated by exchanging the extravesicular 300 mM citrate buffer (pH 4) with 20 mM N-[2-hydroxyethyl]piperazine-N′-[2-ethanesulfonic acid] (HEPES) buffered 150 mM saline (HBS) (pH 7.5) on a Sephadex G-50 column. Doxorubicin was dissolved in HBS at a concentration of 1 mM. Compound 1 was dissolved at a concentration of 0.5 mM in 10% (wt/vol) sucrose solution. […] A preheated drug solution was added to the liposomes at a 0.2 drug-to-lipid molar ratio. The mixture was incubated for 15 min at a temperature of 60° C. with intermittent mixing using a Vortex-apparatus resulting in 100% drug encapsulation.

[6] = test system: calf thymus DNA (CT DNA); conditions: literature values; cited from earlier work
[7] = test system: thyroid cancer, lymphomas, bladder carcinomas, sarcomas, ovarian carcinomas, leukemias; conditions: cited from earlier work
[8] = cited from earlier work

COc1cccc2c1C(=O)c1c(O)c3c(c(O)c1C2=O)C[C@@](O)(C(C)O)C[C@@H]3O[C@H]1C[C@@H](NCc2ccc(O)c(I)c2)[C@H](O)C(C)O1 (mixture of isomers) [Compound 1, 3′-N-(4-hydroxy-3-iodobenzyl)-13-(R/S)-dihydrodaunorubicin]
drug remaining encapsulated in liposomes [1]: more than 90%
localisation in cells by fluorescence microscopy [2]: bound to the cell nucleus and not located inside the cytoplasm
n (exclusion parameter) [3]: 3.4 base pairs
cytotoxic effect (growth curves) [4]: Neither of the latter compounds had any significant cytotoxic effect

COc1cccc2c1C(=O)c1c(O)c3c(c(O)c1C2=O)C[C@@](O)(C(C)=O)C[C@@H]3O[C@H]1C[C@@H](NCc2ccc(O)c(I)c2)[C@H](O)C(C)O1 (some centres unmarked) [Compound 2, 3′-N-(4-Hydroxy-3-iodobenzyl)daunorubicin]
dissolution of drug [5]: did not dissolve completely
n (exclusion parameter) [3]: 3.7 base pairs

COc1cccc2c1C(=O)c1c(O)c3c(c(O)c1C2=O)C[C@@](O)(C(C)=O)C[C@@H]3O[C@H]1C[C@H](N)[C@H](O)[C@H](C)O1 [daunorubicin, Daunorubicin]
n (exclusion parameter) [3]: 3.6 base pairs
cytotoxic effect (growth curves) [4]: Neither of the latter compounds had any significant cytotoxic effect
n (exclusion parameter), literature value [6]: 3.5 base pairs

COc1cccc2c1C(=O)c1c(O)c3c(c(O)c1C2=O)C[C@@](O)(C(=O)CO)C[C@@H]3O[C@H]1C[C@H](N)[C@H](O)[C@H](C)O1 [doxorubicin, Doxorubicin]
drug remaining encapsulated in liposomes [1]: Approximately 80%
n (exclusion parameter) [3]: 3.9 base pairs
cytotoxic effect (growth curves) [4]: Neither of the latter compounds had any significant cytotoxic effect
overall response rate ([7]; bladder carcinomas): 33%
overall response rate ([7]; leukemias): 24%
overall response rate ([7]; lymphomas): 41%
overall response rate ([7]; ovarian carcinomas): 25%
overall response rate ([7]; sarcomas): 26%
overall response rate ([7]; thyroid cancer): 45%
cardiac toxicity up to congestive heart failure, share of patients ([8]; patients): 1-10%
side effect alopecia, share of patients ([8]; patients): 100%
side effect nausea and vomiting, share of patients ([8]; patients): 20-55%
acute dose-limiting toxicity: bone-marrow suppression, leukopenia, and stomatitis, share of treated patients ([8]; treated patients): 80%
n (exclusion parameter), literature value [6]: 3.8 base pairs

— US8609135B2, “Anthracycline derivatives” (Nuclisome AB, priority 2004, dated 2013)
